Legend:
M17_3SYN cells = assay: Paraquat-induced cytotoxicity (LDH) in α-synuclein over-expressing M17_3SYN neuroblastoma cells; assay type: cell-based, human; conditions: Homo sapiens, Neuroblastoma cell, 48 h, toxicity inhibition (LDH) in M17_3SYN cells challenged with 6 mM paraquat, 2 days; read-out: SYN EC50
How it was run: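 Human BE-M17 neuroblastoma cells stably overexpressing wild-type α-synuclein challenged with paraquat (final 6 mM) for 2 days at 37 °C alongside compounds over a concentration range. Cytotoxicity as LDH released relative to total LDH; EC50 from dose-dependent inhibition curve.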

INS-1E cells = assay: Cytokine-induced caspase-3/7 activation in INS-1E cells (beta cell stress/apoptosis model, Caspase-Glo 3/7); assay type: cell-based; conditions: Rattus norvegicus, cytokine mix (IFN-γ, IL-1β, TNF-α), 24 hours, caspase 3/7 activity, read-out: CYT EC50
Source text: The INS-1E cell line, a rat insulinoma cell line, has been characterized extensively. INS-1E cells respond to glucose by secreting insulin and, unlike most other immortalized β-cell lines, they do this in a consistent manner over time. The cells are sensitive to hyperglycemia-, free fatty acid (FFA)-, and cytokine-induced stress. Prolonged stress ultimately leads to induction of apoptotic pathways and, if stress is not counter-acted, to apoptosis. Caspase-3 and -7 play a central role downstream where various apoptotic pathways merge. As such, activation (i.e. cleavage) of these caspases forms a relevant primary read-out to evaluate protective activity of compounds against stress-induced apoptosis.
To evaluate the efficacy of different compounds to prevent induction of apoptosis, an in vitro screen was developed in which INS-1E cells were exposed to a cytokine mix (IFN-γ, 5 ng/ml; IL-1β, 20 pg/ml; TNF-α, 0.25 ng/ml). The degree of induction of apoptosis was evaluated using a substrate for cleaved caspase-3 and -7, i.e. a proluminescent caspase-3/7 DEVD aminoluciferin substrate with a thermostable luciferase (Caspase-Glo® 3/7 assay; Promega, cat. G8092).
On day 0, INS-1E cells were plated in a white-walled 96-well microplate (Greiner, cat. 655098) at 20,000 cells per well in 100 μl complete medium (RPMI containing 11 mM glucose supplemented with 5% FCS, 100 IU/ml penicillin, 100 μg/ml streptomycin, 10 mM HEPES, 1 mM Sodium Pyruvate and 50 μM 2-Mercapto-ethanol). On day 2, 100 μl medium containing cytokines and compound dissolved in DMSO was added to the cells. Wells without cytokines containing DMSO and wells with cytokines and DMSO were included to evaluate the degree of caspase 3/7 activation by the cytokine mix. After 24 hours exposure to cytokines and/or compound, Caspase-Glo® 3/7 reagent was added to the cells and caspase activity was determined by measuring luminescence.
To evaluate compound efficacy, the “toxicity window” was calculated by subtracting caspase activity of wells without stressor from activity of wells with stressor but without compound. The amount of caspase activity in the latter wells was normalized to 1 and used as reference. Subsequently, caspase activity in the wells with stressor and varying concentrations of compound was calculated relative to the wells without compound. Plotting caspase activity vs the log 10 of the concentration of compound permitted calculation of the EC50 values for the compounds which typically lied between 0.0001 and 10 μM. Compounds with an EC50<10 μM were considered active.

O=S(=O)(c1ccc(OC(F)F)cc1)N1CCN(c2nc(C3(c4ccccc4)CC3)no2)CC1 [Cmpd122, 1-(4-Difluoromethoxy-benzenesulfonyl)-4-[3-(1-phenyl-cyclopropyl)-[1,2,4]oxadiazol-5-yl]-piperazine]
EC50 (M17_3SYN cells): 9 nM | EC50 (INS-1E cells): 43 nM

CSc1ccc(S(=O)(=O)N2CCN(c3nc(C(F)(F)c4ccc(F)cc4)no3)CC2)cc1 [Cmpd151, 1-{3-[Difluoro-(4-fluoro-phenyl)-methyl]-[1,2,4]oxadiazol-5-yl}-4-(4-methylsulfanyl-benzenesulfonyl)-piperazine]
EC50 (M17_3SYN cells): 13 nM | EC50 (INS-1E cells): 41 nM

COc1ccc(S(=O)(=O)N2CCN(c3nc(C(F)(F)c4ccc(F)cc4)no3)CC2)cc1 [Cmpd146, 1-{3-[Difluoro-(4-fluoro-phenyl)-methyl]-[1,2,4]oxadiazol-5-yl}-4-(4-methoxy-benzenesulfonyl)-piperazine]
EC50 (M17_3SYN cells): 8 nM | EC50 (INS-1E cells): 75 nM

CSc1ccc(S(=O)(=O)N2CCN(c3nc(C(F)(F)c4ccccc4)no3)CC2)cc1 [Cmpd157, 1-[3-(Difluoro-phenyl-methyl)-[1,2,4]oxadiazol-5-yl]-4-(4-methylsulfanyl-benzenesulfonyl)-piperazine]
EC50 (M17_3SYN cells): 4 nM | EC50 (INS-1E cells): 498 nM

COc1ccc(S(=O)(=O)N2CCN(c3nc(C4(c5ccccc5)CC4)no3)CC2)cc1 [Cmpd120, 1-(4-Methoxy-benzenesulfonyl)-4-[3-(1-phenyl-cyclopropyl)-[1,2,4]oxadiazol-5-yl]-piperazine]
EC50 (M17_3SYN cells): 4 nM | EC50 (INS-1E cells): 40 nM

CSc1ccc(S(=O)(=O)N2CCC3(CC2)CN(c2nc(CC(F)(F)F)no2)C3)cc1 [Cmpd215, 5-(7-((4-(Methylthio)phenyl)sulfonyl)-2,7-diazaspiro[3.5]nonan-2-yl)-3-(2,2,2-trifluoroethyl)-1,2,4-oxadiazole]
EC50 (M17_3SYN cells): 274 nM | EC50 (INS-1E cells): 145 nM

COc1ccc(S(=O)(=O)N2CCN(c3nc(C(C)(C)c4ccnc(C)c4)no3)CC2)cc1 [Cmpd195, 5-(4-((4-Methoxyphenyl)sulfonyl)piperazin-1-yl)-3-(2-(2-methylpyridin-4-yl)propan-2-yl)-1,2,4-oxadiazole]
EC50 (M17_3SYN cells): 70 nM | EC50 (INS-1E cells): 52 nM

O=S(=O)(c1ccc(OC(F)F)cc1)N1CCN(c2nc(C3(c4cccc(Cl)c4)CC3)no2)CC1 [Cmpd136, 1-{3-[1-(3-Chloro-phenyl)-cyclopropyl]-[1,2,4]oxadiazol-5-yl}-4-(4-difluoromethoxy-benzenesulfonyl)-piperazine]
EC50 (M17_3SYN cells): 8 nM | EC50 (INS-1E cells): 24 nM

CCOc1ccc(S(=O)(=O)N2CCN(c3nc(C4(c5ccccc5)CC4)no3)CC2)cc1 [Cmpd121, 1-(4-Ethoxy-benzenesulfonyl)-4-[3-(1-phenyl-cyclopropyl)-[1,2,4]oxadiazol-5-yl]-piperazine]
EC50 (M17_3SYN cells): 10 nM | EC50 (INS-1E cells): 186 nM

COc1ccc(S(=O)(=O)N2CCN(c3nc(C(C)(C)c4ccc(F)cc4)no3)CC2)cc1 [Cmpd113, 1-{3-[1-(4-Fluoro-phenyl)-1-methyl-ethyl]-[1,2,4]oxadiazol-5-yl}-4-(4-methoxy-benzenesulfonyl)-piperazine]
EC50 (M17_3SYN cells): 8 nM | EC50 (INS-1E cells): 1 nM

CSc1ccc(S(=O)(=O)N2CCN(c3nc(C4(c5ccc(Cl)cc5)CC4)no3)CC2)cc1 [Cmpd141, 1-{3-[1-(4-Chloro-phenyl)-cyclopropyl]-[1,2,4]oxadiazol-5-yl}-4-(4-methylsulfanyl-benzenesulfonyl)-piperazine]
EC50 (M17_3SYN cells): 12 nM | EC50 (INS-1E cells): 19 nM

COc1ccc(S(=O)(=O)N2CCC3(CC2)CN(c2nc(CC(F)(F)F)no2)C3)cc1 [Cmpd214, 5-(7-((4-Methoxyphenyl)sulfonyl)-2,7-diazaspiro[3.5]nonan-2-yl)-3-(2,2,2-trifluoroethyl)-1,2,4-oxadiazole]
EC50 (M17_3SYN cells): 164 nM | EC50 (INS-1E cells): 55 nM

CSc1ccc(S(=O)(=O)N2CCN(c3nc(C4(c5ccccc5)CC4)no3)CC2)cc1 [Cmpd126, 1-(4-Methylsulfanyl-benzenesulfonyl)-4-[3-(1-phenyl-cyclopropyl)-[1,2,4]oxadiazol-5-yl]-piperazine]
EC50 (M17_3SYN cells): 7 nM | EC50 (INS-1E cells): 28 nM

COc1ccc(S(=O)(=O)N2CCN(c3nc(C4(c5cccc(Cl)c5)CC4)no3)CC2)cc1 [Cmpd134, 1-{3-[1-(3-Chloro-phenyl)-cyclopropyl]-[1,2,4]oxadiazol-5-yl}-4-(4-methoxy-benzenesulfonyl)-piperazine]
EC50 (M17_3SYN cells): 2 nM | EC50 (INS-1E cells): 16 nM

CCOc1ccc(S(=O)(=O)N2CCN(c3nc(C4(c5ccc(F)cc5)CC4)no3)CC2)cc1 [Cmpd106, 1-(4-Ethoxy-benzenesulfonyl)-4-{3-[1-(4-fluoro-phenyl)-cyclopropyl]-[1,2,4]oxadiazol-5-yl}-piperazine]
EC50 (M17_3SYN cells): 65 nM | EC50 (INS-1E cells): 99 nM

COc1ccc(S(=O)(=O)N2CCN(c3nc(COc4ccc(F)cc4)no3)CC2)cc1 [Cmpd206, 3-((4-Fluorophenoxy)methyl)-5-(4-((4-methoxyphenyl)sulfonyl)piperazin-1-yl)-1,2,4-oxadiazole]
EC50 (M17_3SYN cells): 22 nM | EC50 (INS-1E cells): 189 nM

COc1ccc(S(=O)(=O)N2CCN(c3nc(COCC4CC4)no3)CC2)cc1 [Cmpd203, 3-((Cyclopropylmethoxy)methyl)-5-(4-((4-methoxyphenyl)sulfonyl)piperazin-1-yl)-1,2,4-oxadiazole]
EC50 (M17_3SYN cells): 8 nM | EC50 (INS-1E cells): 153 nM

CSc1ccc(S(=O)(=O)N2CCN(c3nc(C(C)(C)c4ccc(F)cc4)no3)CC2)cc1 [Cmpd116, 1-{3-[1-(4-Fluoro-phenyl)-1-methyl-ethyl]-[1,2,4]oxadiazol-5-yl}-4-(4-methylsulfanyl-benzenesulfonyl)-piperazine]
EC50 (M17_3SYN cells): 7 nM | EC50 (INS-1E cells): 26 nM

CSc1ccc(S(=O)(=O)N2CCN(c3nc(C4(c5cccc(Cl)c5)CC4)no3)CC2)cc1 [Cmpd137, 1-{3-[1-(3-Chloro-phenyl)-cyclopropyl]-[1,2,4]oxadiazol-5-yl}-4-(4-methylsulfanyl-benzenesulfonyl)-piperazine]
EC50 (M17_3SYN cells): 7 nM | EC50 (INS-1E cells): 9 nM

CSc1ccc(S(=O)(=O)N2CCN(c3nc(C4C[C@@H]5CC[C@H]4C5)no3)CC2)cc1 (stereo partly drawn) [Cmpd191, 3-((1S,4R)-bicyclo[2.2.1]heptan-2-yl)-5-(4-((4-(methylthio)phenyl)sulfonyl)piperazin-1-yl)-1,2,4-oxadiazole]
EC50 (M17_3SYN cells): 109 nM | EC50 (INS-1E cells): 554 nM

CCOc1ccc(S(=O)(=O)N2CCN(c3nc(C4(c5cccc(Cl)c5)CC4)no3)CC2)cc1 [Cmpd135, 1-{3-[1-(3-Chloro-phenyl)-cyclopropyl]-[1,2,4]oxadiazol-5-yl}-4-(4-ethoxy-benzenesulfonyl)-piperazine]
EC50 (M17_3SYN cells): 28 nM | EC50 (INS-1E cells): 129 nM

COc1ccc(S(=O)(=O)N2CCC3(CC2)CN(c2nc(C4(c5ccc(F)cc5)CC4)no2)C3)cc1 [Cmpd213, 3-(1-(4-Fluorophenyl)cyclopropyl)-5-(7-((4-methoxyphenyl)sulfonyl)-2,7-diazaspiro[3.5]nonan-2-yl)-1,2,4-oxadiazole]
EC50 (M17_3SYN cells): 360 nM | EC50 (INS-1E cells): 10 nM

CSc1ccc(S(=O)(=O)N2CCN(c3nc(C(F)(F)c4ccc(Cl)cc4)no3)CC2)cc1 [Cmpd145, 1-{3-[(4-Chloro-phenyl)-difluoro-methyl]-[1,2,4]oxadiazol-5-yl}-4-(4-methylsulfanyl-benzenesulfonyl)-piperazine]
EC50 (M17_3SYN cells): 15 nM | EC50 (INS-1E cells): 82 nM

COc1ccc(S(=O)(=O)N2CCN(c3nc(C4(c5ccc(F)cc5)CC4)no3)CC2)cc1 [Cmpd105, 1-{3-[1-(4-Fluoro-phenyl)-cyclopropyl]-[1,2,4]oxadiazol-5-yl}-4-(4-methoxy-benzenesulfonyl)-piperazine]
EC50 (M17_3SYN cells): 9 nM | EC50 (INS-1E cells): 27 nM

From US10562869B2, “Oxadiazole compounds” (REMYND NV, priority 2014, dated 2020)
